Experiment in all cases: Kinase inhibitor library screening, PrestoBlue cell viability, 1 or 10 μM, 72 h
Assay [1] has as its system A375-XP cells (Vemurafenib-resistant). On the procedure:
(§1) After 72 h of treatment, cell viability was assessed using the PrestoBlue Cell Viability Reagent (ThermoFisher Scientific). Measurements were performed with the CLARIOstar Monochromator microplate reader (BMG Labtech).
(§2) Kinase inhibitor library screening. […] Each cell line was treated in its sensitive form (parental), and also as 2 resistant derivatives, which were made resistant to either Vemurafenib (XP) or Dabrafenib (GP). Drugs were added at 2 different concentrations, 1 and 10 μM, for 72 h and cell viability was assessed using the PrestoBlue Cell Viability assay. Results are depicted as % viability compared to untreated cells. Each cell line was analyzed at least in duplicate. […] (XLSX 95 kb)

Assay [2] concerns 501Mel-GP cells (Dabrafenib-resistant). The protocol: as §1, §2
Assay [3] concerns IGR37-XP cells (Vemurafenib-resistant). Conditions: for Cell viability in kinase inhibitor library screening, IGR37 XP, 1μΜ: in %. The protocol:
as §1, §2

In a further assay the test system is IGR37 cells (parental). The protocol:
as §1, §2

In another assay the test system is A375 cells (parental). On the procedure:
as §1, §2

Assay [4] has as its system 501Mel-XP cells (Vemurafenib-resistant). The protocol:
as §1, §2

Assay [5] relates to IGR37-GP cells (Dabrafenib-resistant). Conditions: for Cell viability in kinase inhibitor library screening, IGR37 GP, 1μΜ: in %. On the procedure: as §1, §2
Assay [6] relates to A375-GP cells (Dabrafenib-resistant). On the procedure: as §1, §2
The next assay relates to 501Mel cells (parental). Conditions: for Cell viability in kinase inhibitor library screening, 501Mel Parental, 10μΜ: in %. On the procedure:
as §1, §2

The mark [7] stands for this setting: IGR37 Parental, 10μΜ, 72 h, in %.

The text below walks through data of paper PMC6364417, “Kinase inhibitor library screening identifies synergistic drug combinations effective in sensitive and resistant melanoma cells” (Journal of Experimental & Clinical Cancer Research : CR, 2019).

Values joined by “and” are separate entries in the source; they are usually repeats but may differ in a detail not shown here. Equal entries are not always repeated. Where two headings read alike, the source gives them in different places.

As to `CC[C@H](CO)Nc1nc(NCc2ccccc2)c2ncn(C(C)C)c2n1` [Roscovitine (Seliciclib, CYC202)], the “cell viability (kinase inhibitor library screening)” value is 109.6% and 86.5% in assay [1]; 85.2% in [2]; 96.5% and 59.2% in assay [3]; 85.4% and 104.3% with IGR37 cells (parental); 90.5% in the assay on A375 cells (parental); 93.6% and 61.7% in assay [4]. The “cell viability (kinase inhibitor library screening)” value in assay [5] is 93.8% and 90.7%; in assay [6], 109.1% and 86.5%; in the assay on 501Mel cells (parental) it was 95.0% and 93.4%.
Consider `O=C(Nc1c[nH]nc1-c1nc2ccc(CN3CCOCC3)cc2[nH]1)NC1CC1` [AT9283], for which the “cell viability (kinase inhibitor library screening)” value stood at 38.4% in assay [1] (A375 XP, 1μΜ, 72 h); 9.8% in [1] (A375 XP, 10μΜ, 72 h); 72.2% in [2] (501Mel GP, 1μΜ, 72 h); 0.469% in [2] (501Mel GP, 10μΜ, 72 h); 82.7% in assay [3] (IGR37 XP, 1μΜ, 72 h); 1.5% in assay [3] (IGR37 XP, 10μΜ, 72 h). Besides, the “cell viability (kinase inhibitor library screening)” value with IGR37 cells (parental) (IGR37 Parental, 1μΜ, 72 h) is given as 90.9%; in the assay with IGR37 cells (parental) (IGR37 Parental, 10μΜ, 72 h), 1.1%; with A375 cells (parental) (A375 Parental, 10μΜ, 72 h) it was 6.2%; in the assay on A375 cells (parental) (A375 Parental, 1μΜ, 72 h) it was 27.1%; in assay [4] (501Mel XP, 1μΜ, 72 h) it was 63.4%; in assay [4] (501Mel XP, 10μΜ, 72 h), 0.184%. In addition, the “cell viability (kinase inhibitor library screening)” value in [5] (IGR37 GP, 1μΜ, 72 h) came out at 97.8%; in [5] (IGR37 GP, 10μΜ, 72 h) it was 3.7%; in assay [6] (A375 GP, 1μΜ, 72 h), 32.2%; in [6] (A375 GP, 10μΜ, 72 h), 3.3%; in the assay on 501Mel cells (parental) (501Mel Parental, 1μΜ, 72 h) it was 67.5%; in the assay with 501Mel cells (parental) (501Mel Parental, 10μΜ, 72 h), 2.0%.
With `COC[C@H]1OC(=O)c2coc3c2[C@@]1(C)C1=C(C3=O)[C@@H]2CCC(=O)[C@@]2(C)C[C@H]1OC(C)=O` [Wortmannin], the “Cell viability in kinase inhibitor library screening, A375 XP, 10μΜ” value in [1] (A375 XP, 10μΜ, 72 h) is listed as 67.6. In addition, the “Cell viability in kinase inhibitor library screening, 501Mel GP, 1μΜ” value in assay [2] (501Mel GP, 1μΜ, 72 h, in %) turned out to be 95.9. The “Cell viability in kinase inhibitor library screening, 501Mel GP, 10μΜ” value in assay [2] (501Mel GP, 10μΜ, 72 h, in %) came to 51.6. In [3] (IGR37 XP, 10μΜ, 72 h), this compound registered a Cell viability in kinase inhibitor library screening, IGR37 XP, 10μΜ of 26.8%. Further, the “Cell viability in kinase inhibitor library screening, IGR37 XP, 1μΜ” value in assay [3] (IGR37 XP, 1μΜ, 72 h) is reported as 96.4. In addition, the “Cell viability in kinase inhibitor library screening, IGR37 Parental, 1μΜ” value in the assay with IGR37 cells (parental) (IGR37 Parental, 1μΜ, 72 h, in %) was found to be 99.5. Further, the “Cell viability in kinase inhibitor library screening, IGR37 Parental, 10μΜ” value in the assay with IGR37 cells (parental) (setting [7]) came to 76.3. Further, the “Cell viability in kinase inhibitor library screening, A375 Parental, 10μΜ” value in the assay on A375 cells (parental) (A375 Parental, 10μΜ, 72 h) came out at 77.1. Also, in the assay with A375 cells (parental) (A375 Parental, 1μΜ, 72 h), the “Cell viability in kinase inhibitor library screening, A375 Parental, 1μΜ” value is listed as 109.1. For the same compound, the “Cell viability in kinase inhibitor library screening, 501Mel XP, 1μΜ” value in [4] (501Mel XP, 1μΜ, 72 h, in %) is reported as 91.1. Further, the “Cell viability in kinase inhibitor library screening, 501Mel XP, 10μΜ” value in assay [4] (501Mel XP, 10μΜ, 72 h, in %) is 23.3. The same compound yielded a Cell viability in kinase inhibitor library screening, IGR37 GP, 10μΜ in [5] (IGR37 GP, 10μΜ, 72 h) of 22.9%. Moreover, the “Cell viability in kinase inhibitor library screening, IGR37 GP, 1μΜ” value in assay [5] (IGR37 GP, 1μΜ, 72 h) came to 97.7. In assay [6] (A375 GP, 1μΜ, 72 h), the “Cell viability in kinase inhibitor library screening, A375 GP, 1μΜ” value is reported as 103.2. In addition, the “Cell viability in kinase inhibitor library screening, A375 GP, 10μΜ” value in assay [6] (A375 GP, 10μΜ, 72 h) amounted to 72.0. Also, the “Cell viability in kinase inhibitor library screening, 501Mel Parental, 10μΜ” value with 501Mel cells (parental) (501Mel Parental, 10μΜ, 72 h) came to 57.2.
Regarding `O=C1NC(=O)/C(=C/c2ccc3c(c2)OC(F)(F)O3)S1` [AS-604850], the “Cell viability in kinase inhibitor library screening, A375 XP, 1μΜ” value in assay [1] (A375 XP, 1μΜ, 72 h) came out at 109.0. Besides, the “Cell viability in kinase inhibitor library screening, A375 XP, 10μΜ” value in [1] (A375 XP, 10μΜ, 72 h) is listed as 106.1. Further, in [2] (501Mel GP, 10μΜ, 72 h, in %), the “Cell viability in kinase inhibitor library screening, 501Mel GP, 10μΜ” value stood at 91.8. In assay [3] (IGR37 XP, 10μΜ, 72 h), this compound displayed a Cell viability in kinase inhibitor library screening, IGR37 XP, 10μΜ of 80.4%. Besides, the “Cell viability in kinase inhibitor library screening, IGR37 XP, 1μΜ” value in assay [3] (IGR37 XP, 1μΜ, 72 h) is listed as 91.9. In addition, the “Cell viability in kinase inhibitor library screening, IGR37 Parental, 10μΜ” value with IGR37 cells (parental) (setting [7]) is 108.6. In the assay with A375 cells (parental) (A375 Parental, 10μΜ, 72 h), the “Cell viability in kinase inhibitor library screening, A375 Parental, 10μΜ” value was determined as 95.5. In addition, the “Cell viability in kinase inhibitor library screening, A375 Parental, 1μΜ” value in the assay with A375 cells (parental) (A375 Parental, 1μΜ, 72 h) stood at 104.7. Also, in [4] (501Mel XP, 10μΜ, 72 h, in %), the “Cell viability in kinase inhibitor library screening, 501Mel XP, 10μΜ” value came out at 90.1. This compound also showed a Cell viability in kinase inhibitor library screening, IGR37 GP, 10μΜ in assay [5] (IGR37 GP, 10μΜ, 72 h) of 98%. In assay [5] (IGR37 GP, 1μΜ, 72 h), the “Cell viability in kinase inhibitor library screening, IGR37 GP, 1μΜ” value was 103.0. Moreover, the “Cell viability in kinase inhibitor library screening, A375 GP, 10μΜ” value in [6] (A375 GP, 10μΜ, 72 h) was 98.8. For the same compound, in the assay on 501Mel cells (parental) (501Mel Parental, 10μΜ, 72 h), the “Cell viability in kinase inhibitor library screening, 501Mel Parental, 10μΜ” value worked out at 104.4.
